Measurements as given in patent US20030232801A1, “Identification of compounds for the treatment or prevention of proliferative diseases” (priority 2001, published 2003).

How the values were obtained:
[1] = Cellular toxicity, MTS cell viability, 6D-2 cells; type: cell-based, human; details: Homo sapiens, MCF7, MTS viability
Method: (§1) 6D-2 cells (MCF-7 human breast cancer cells stably transfected with luciferase linked to the 5′ and 3′UTRs of human HER2) were added to 96-well plates at 7500 cells per well in 200 μL medium and incubated for 24 hours at 100% humidity, 5% CO2, and 37° C. Compounds were diluted from DMSO stock solutions into medium and were added at various concentrations. The 6D-2 cells were incubated for 16 hours at which time the volume of medium in each well was reduced to 100 μL using a plate washer. 20 μL of MTS cell viability reagent (Promega, Madison, Wis.) was then added to each well, and the plates were incubated for 1-4 hours. A plate containing wells with 100 μL medium plus MTS reagent was prepared to determine the background reading. The plates were read on the Wallac 2 plate reader (PerkinElmer Life Science, Boston, Mass.) at 490 nm. Percent viability was calculated as (O.D. of compound treated cells−background O.D.)/(O.D. of DMSO treated cells−background O.D.)×100. MT-4 cells (adult human T-cell leukemia cells) were plated at 1.5×10^5 cells per well in 200 μL medium and incubated for at least one hour before the addition of compounds. The cells were incubated for 5 days at 100% humidity, 5% CO2, and 37° C. Cell viability was determined as described for 6D-2 cells.
(§2) Compounds of the invention containing a pyrrolidine substituent were tested for toxicity to cancerous and non-cancerous cells. 6D-2 cellular activity is representative of potency as an antitumor agent. MT-4 cellular activity is representative of general toxicity. A high IC50 for MT-4 cells and a low IC50 for 6D-2 cells is indicative of a compound of potential therapeutic use in treating or preventing proliferative diseases, such as cancer.

[2] = tested on: MT-4 cells (adult human T-cell leukemia cells); assay: Cellular toxicity, MTS cell viability, MT-4 cells; type: cell-based; details: Homo sapiens, MT4, 120 h, 5 day, MTS viability
Method: as §1, §2

6D-2 cancer cell line = assay: Viability of 6D-2 cells on administration of MES 51151 (FIG. 3); type: cell-based, human
Method: (§3) FIG. 3 is a graph of the effect of administration of MES 51151 on the viability of 6D-2 cells and PBMCs.
(§4) Toxicity of the transfected cells increased with increased concentration of MES 51151 administered to the cells (FIG. 3, showing the percent viable 6D-2 cells compared to control cells). MES 51151 was administered to primary peripheral blood mononuclear cells (PBMCs) to test for its effect on cell toxicity. MES 51151 was not toxic to the PBMCs (FIG. 3, showing the percent viable PBMCs compared to control cells). The EC50 of MES 51151 when administered to the 6D-2 cancer cell line was less than 100 nM, yet MES 51151 was not toxic to PBMCs even when administered at a concentration of 10 μM. Therefore, the therapeutic index of MES 51151 is at least 100, and may be even higher. […] Thus, this compound may potentially be employed for the treatment or prevention of proliferative diseases, including cancer.

[3] = tested on: primary peripheral blood mononuclear cells (PBMCs); assay: Viability of PBMCs on administration of MES 51151 (FIG. 3); type: cell-based; details: concentration of 10 μM
Method: as §3, §4

[4] = tested on: luciferase reporter operatively linked to HER2 5′ and 3′UTRs; assay: HER2 UTR/luciferase reporter screening assay in stably transfected MCF7 (6D-2) cells; type: cell-based, human; details: HER2 5′ and 3′UTR/luciferase reporter
Method: The HER2 UTR/reporter nucleic acid stably transfected cell system described above was used to identify compounds that either increased or decreased the level of HER2 translation efficiency. Small molecules from a library of candidate compounds (MES library, Message Pharmaceuticals, Malvern, Pa., containing, for example, small molecules from a commercially available Nanoscale Combinatorial Synthesis Inc. (Mountain View, Calif.) library) were administered to 6D-2 cells containing the stably transfected luciferase reporter nucleic acid sequence operatively linked to HER2 5′ and 3′UTRs to identify compounds that modulate HER2 translation efficiency. Each candidate compound was administered at a concentration of 10 μM.
After 16 hours of exposure to the compound, the level of luciferase protein activity was measured in candidate compound-treated cells containing the luciferase construct only, or in cells containing the luciferase/UTRs that were not treated with the candidate compound, or are treated with the candidate compound vehicle only (control cells), and compared to activity levels in candidate compound-treated cells containing the luciferase construct with the UTRs (test cells). […]

For CC(=O)Nc1ccc(NC2=C(N3CCCC3)C(=O)c3ccccc3C2=O)cc1 [Example 2], the IC50 [1] was 250 nM, the IC50 [2] was 80 nM and the Therapeutic index (6D-2 cancer cell line; 6D-2 EC50 versus non-toxic concentration in PBMCs) was “at least 100”. The EC50 (6D-2 cancer cell line; Homo sapiens, 6D-2 cells, toxicity (percent viable cells compared to control), read-out: EC50 when administered to the 6D-2 cancer cell line) was < 100 nM, the “Toxicity to PBMCs” value [3] was “not toxic” and the Luciferase activity [4] was “reduced luciferase activity through toxicity”.
